“And” between values parts separate entries of the source, which are not always exact repeats. Identical values can stand only once. Starred links: 1 amine or outer side, 2 acyl side, 3 side chain; linkers in the order of their positions; H or OH if unused. Positions of bridges follow the written chain, without caps; N, C: chain ends. Non-standard residues stand in square brackets, D forms with d. Residues, ends and D or L forms follow the SMILES beside them. Chains are numbered I, II in the order given. *: point of attachment. isoGln = NC(=O)[C@H](CCC(=O)[*:2])N[*:1]; εLys = N[C@@H](CCCCN[*:1])C(=O)[*:2]; Dab = NCC[C@H](N)C(=O)O; PhAc = O=C(Cc1ccccc1)*
Tests used:
vasopressin V1a receptor = assay: Pharmacodynamics (blood pressure, MAP, pulse rate, peripheral blood flow, cardiac output, urine volume) in healthy subjects; type: in vivo, human
Method: In some embodiments, MAP is calculated from measurements of systolic blood pressure and diastolic blood pressure. In some embodiments, MAP is calculated when taking into account the pressure during a single cardiac cycle. In some embodiments, MAP is ⅓ (systolic blood pressure−diastolic blood pressure)+diastolic blood pressure.
(§1) In some instances, endpoints of the study were: vital signs (e.g., supine blood pressure, pulse, and body temperature), electrocardiogram (ECG) (e.g., intervals, rhythm, and morphology), cardiac function (e.g., cardiac output using echocardiography), peripheral blood flow/tissue perfusion (e.g., by skin color), venous blood gases (e.g., lactate), urinary output, clinical chemistry, hematology, hemostasis, and urinalysis, adverse events (AEs) (e.g., type, frequency, and intensity), pharmacokinetics (e.g., AUC, AUCt, AUCτ, % Extrap AUC, Cmax, tmax, CL, Vz, t1/2, MRT, Vss, F, Ae, and CLR), and metabolite pattern in plasma and urine.

blood lactate = assay: Blood lactate in cynomolgus monkeys after SC Compound 1; type: in vivo, cynomolgus monkey; conditions: 15-360 min
Method: Blood samples (0.5 mL in EDTA) were collected from a femoral or saphenous vein before dosing and at multiple times continuing out to 480 min after administration. Lactate concentration was also measured as part of PD analysis and collected as EDTA whole blood from the pre-dose, 15-, 40-, 90-, 180-, and 360-min post-administration samples immediately after collection using a Lactate Plus (Nova Biomedical) meter. For blood sample analysis, plasma was prepared from whole blood. Subsequent bioanalysis included compound extraction followed by standard LC/MS methods to determine compound concentration in each sample.

[1] = PK of Compound 1, once daily subcutaneous (bolus) injection for 5 days in healthy men and women (Period 2); type: in vivo, human
Source text: as §1

[2] = Effect of buffer concentration on bioavailability and M1 formation after SC (bolus) injection in rats; type: in vivo, rat; conditions: s.c. (bolus)
[3] = system: bile duct ligation (BDL) and ascites rat model; assay: Bile duct ligation (BDL) and ascites rats, SC b.i.d. 5 days; type: in vivo; conditions: for Animal Body Weight: 99.5 μg FB/kg SC b.i.d.
Method: Animals: Male Sprague Dawley rats weighing 300-400 grams with bile duct ligations (BDL) performed at 7 weeks of age by the vendor (Harlan, IN). BDL rats were administered 50 μg of vitamin K1 at the time of BDL surgery, prior to shipment, and then once weekly to reduce potential mortality from hemorrhagic complications.
The working solution was stored at 4° C. over the course of the study and warmed to room temperature for 30 minutes before administration.
Animals were weighed daily. […] Each metabolic cage was set up for continuous measurement of spontaneous urine output via force transducers placed […] the urine collection vials to monitor and record the time course of urine output. Data from the calibrated force transducers every time the rats void. […] Only 16 metabolic cages could be used, urine, water, and food intake data were not collected for one animal in the vehicle group. Animals were returned to their home cages for the remainder of the study and were sacrificed before the second treatment on the fifth day. Blood samples were collected from each animal via cardio puncture. Laparotomies were performed and ascites fluid collected and volume measured by pipet. Spleens were dissected from each animal, any excessive fat or connective tissue was removed and the spleens were weighted.

skin blood flow (SBF) = assay: Skin blood flow (SBF), laser Doppler, anesthetized Wistar rats, IV infusion; type: in vivo, rat
Method: This study was performed over multiple experiments using a total of 48 adult male Wistar rats. […] Compounds were infused via an IV catheter at six sequentially increasing doses.
On the day of experimentation animals were anesthetized and instrumented. A tracheostomy was performed to allow assisted respiration and three catheters were placed. Laser Doppler probes were positioned on a shaved portion of the animal's lower abdominal skin for blood-flow measurements. Ventilation was initiated, and baseline readings for the primary parameter of skin blood flow (SBF) were recorded. Readings for the secondary parameters were also recorded: (1) blood lactate concentration, (2) mean arterial pressure (MAP), and (3) blood pH. Data collection was performed continuously for SBF and MAP using NOTOCORD-hem™ (Instem), and blood samples were taken at each compound dose and immediately analyzed using an i-STAT® meter.
After the final dose administration, animals were euthanized and a final SBF measurement was recorded to detect any signal from the flow probe after the animal's heart stopped beating to control for a signal not attributed to blood flow. Animal body temperature, pulse, and ventilation adequacy were monitored throughout the procedure.

[4] = s.c. 0.1 mg, 1st administration
[5] = s.c. 0.1 mg, 5th administration
[6] = s.c. 0.3 mg, 1st administration
[7] = s.c. 0.3 mg, 5th administration

CC[C@H](C)[C@@H]1NC(=O)[C@H](Cc2ccccc2)NC(=O)[C@@H](N)CSSC[C@@H](C(=O)N2CCC[C@H]2C(=O)N[C@@H](CCNC(=O)[C@@H](N)CCCCNC(=O)[C@H](CCCCNC(C)=O)NC(=O)CC[C@H](NC(=O)[C@H](CCCNC(=N)N)NC(=O)[C@@H]2CCCN2C(=O)[C@H](C)NC(=O)[C@H](CC(N)=O)NC(=O)[C@H](CCC(N)=O)NC(=O)[C@H](Cc2ccccc2)NC(=O)[C@@H](Cc2ccc(OC)cc2)NC(=O)Cc2ccccc2)C(N)=O)C(=O)NCC(N)=O)NC(=O)[C@H](CC(N)=O)NC(=O)[C@H](CCC(N)=O)NC1=O [Compound 1, Glycinamide, L-cysteinyl-L-phenylalanyl-L-isoleucyl-L-glutaminyl-L-asparaginyl-L-cysteinyl-L-prolyl-N4-(phenylacetyl-O-methyl-D-tyrosyl-L-phenylalanyl-L-glutaminyl-L-asparaginyl-L-alanyl-L-prolyl-L-arginyl-L-isoglutamyl-N5-acetyl-L-lysyl-L-ε-lysyl)-L-2,4-diaminobutyryl-, cyclic (1→6)-disulfide] (I: H-CFIQNCP[Dab]G-NH2 / II: PhAc-[dY](Me)FQNAPR[isoGln]K(Ac)[εLys]; disulfide I:1-I:6; amide I:8-II:C)
reduction in cardiac output, mean (vasopressin V1a receptor; 0.9 mg i.v., echocardiography): 3%-12 | individual decreases in cardiac output (vasopressin V1a receptor; any dose, i.v. and s.c., echocardiography): 20-25% | AE of moderate decreased cardiac output (vasopressin V1a receptor; i.v. 0.1 mg): One | subjects with hyperemia (vasopressin V1a receptor; i.v. 0.45 mg, 30 and 90 minutes): 1 subject | urinary volume (vasopressin V1a receptor; i.v. and s.c.): no apparent dose related trends or changes | cardiac output versus placebo (vasopressin V1a receptor; i.v., except 0.1 mg group): decreased | subjects with pallor (vasopressin V1a receptor; i.v., mainly 0.45, 0.6 and 0.9 mg): 18 subjects | cardiac output (vasopressin V1a receptor; s.c. 0.1 and 0.3 mg): slight reduction | subjects with pallor (vasopressin V1a receptor; s.c. 0.1 and 0.3 mg, after 1st dose): About 30% | blood lactate versus pre-dose (blood lactate): not notably increased | bioavailability ([1]; repeated s.c. injections, versus i.v.): about 18% | terminal half-life (summary) ([1]; s.c.): about 1 hours | tmax (summary) ([1]; s.c.): about 0.3 hours | AUC, geometric mean [1, 4]: 0.87 (22) h*ng/mL | AUC, mean [1, 4]: 0.88 (0.19) h*ng/mL | Cmax, geometric mean [1, 4]: 0.43 (41) ng/mL | Cmax, mean [1, 4]: 0.46 (0.17) ng/mL | tmax, mean [1, 4]: 0.3 (0.1) h | AUC, geometric mean [1, 5]: 0.70 (3) h*ng/mL | AUC, mean [1, 5]: 0.70 (0.02) h*ng/mL | Cmax, geometric mean [1, 5]: 0.42 (28) ng/mL | Cmax, mean [1, 5]: 0.43 (0.14) ng/mL | tmax, mean [1, 5]: 0.3 (0.1) h | AUC, geometric mean [1, 6]: 6.40 (109) h*ng/mL | AUC, mean [1, 6]: 7.90 (5.01) h*ng/mL | Cmax, geometric mean [1, 6]: 2.45 (98) ng/mL | Cmax, mean [1, 6]: 2.99 (2.03) ng/mL | t1/2, mean [1, 6]: 1.6 (0.7) h | tmax, mean [1, 6]: 0.4 (0.5) h | AUC, geometric mean [1, 7]: 2.77 (113) h*ng/mL | AUC, mean [1, 7]: 3.36 (2.69) h*ng/mL | Cmax, geometric mean [1, 7]: 1.42 (58) ng/mL | Cmax, mean [1, 7]: 1.52 (0.79) ng/mL | tmax, mean [1, 7]: 0.4 (0.2) h | tmax, median [1, 7]: 24 min | median tmax ([1]; s.c. 0.1 and 0.3 mg, 1st and 5th administrations): 18 to 24 min | bioavailability ([2]; about 10 mM buffer): about 13% | bioavailability ([2]; about 100 mM buffer): about 37% | Animal Body Weight ([3]; day 1): 362.4 g | Animal Body Weight ([3]; day 2): 330.2 g | Animal Body Weight ([3]; day 3): 324.6 g | Animal Body Weight ([3]; day 4): 329.0 g | Animal Body Weight ([3]; day 5): 329.8 ± 2.9 g and 329.8 g | Urine Volume ([3]; 5-24 hr): 31.2 mL | Urine Volume, Δ versus vehicle ([3]; 5-24 hr): 46% | Urine creatinine content ([3]; 5-24 hr): 9.5 mg | Urine creatinine content, Δ versus vehicle ([3]; 5-24 hr): −32% | Urine potassium content ([3]; 5-24 hr): 0.8 mEq | Urine potassium content, Δ versus vehicle ([3]; 5-24 hr): −60% | Urine sodium content ([3]; 5-24 hr): 1.1 mEq | Urine sodium content, Δ versus vehicle ([3]; 5-24 hr): 85% | Urine Volume ([3]; 4 hr): 9.8 mL | Urine Volume, Δ versus vehicle ([3]; 4 hr): 367% | Urine creatinine content ([3]; 4 hr): 2.7 mg | Urine creatinine content, Δ versus vehicle ([3]; 4 hr): 8% | Urine potassium content ([3]; 4 hr): 1.1 mEq | Urine potassium content, Δ versus vehicle ([3]; 4 hr): 394% | Urine sodium content ([3]; 4 hr): 2.6 mEq | Urine sodium content, Δ versus vehicle ([3]; 4 hr): 2342% | Net Fluid Balance ([3]; 24 hours (vehicle 10.0)): -24.3 mL | Urine Volume ([3]; 24 hr): 41.0 ± 4.3 mL and 41.0 mL | decrease in mean body weight ([3]; between day 1 and 2): 32.2 g | further decrease in mean body weight ([3]; between days 2 and 3): 5.6 g | BUN ([3]; day 5): 34 mg/dL | BUN, Δ versus vehicle ([3]; day 5): 64% | Cl ([3]; day 5): 100 mEq/L | Cl, Δ versus vehicle ([3]; day 5): −3% | Creatinine (blood) ([3]; day 5): 0.3 mg/dL | Na (blood) ([3]; day 5): 139 mEq/L | Na (blood), Δ versus vehicle ([3]; day 5): −1% | PHOS ([3]; day 5): 5.1 mg/dL | PHOS, Δ versus vehicle ([3]; day 5): −21% | difference in final body weight versus vehicle ([3]; day 5): 39.8 g | Spleen Weight ([3]; day 5 (vehicle 2.7)): 2.3 g | Ascites Volume ([3]; day 5 (vehicle 19.8)): 3.8 ± 1.8 mL and 3.8 mL | hyponatremia ([3]; repeat administration over 5 days): failed to provide hyponatremia | SBF ED50 (skin blood flow (SBF)): 25.2 pmol/kg/min | SBF Emax (skin blood flow (SBF)): 38.6% | greatest percent change from baseline in skin flow (skin blood flow (SBF)): −42.1%
